How the values were obtained:
Format in all cases: biochemical
[1] = molecular target: T1, monkey testicular C17-20 lyase (Macaca fascicularis, UniProt Q2XVA1); assay: inhibition of cynomolgus monkey testicular C17-20 lyase (microsomes), with or without preincubation; conditions: for inhibition at 0.1 µM / inhibition at 1 µM: cynomolgus monkey testicular lyase; for inhibition at 0.1 µM: concentration 0.1 μM; for inhibition at 1 µM: concentration 1 μM
T1 construct: microsomal preparations of the enzyme from rat or cynomolgus monkey testicular tissue; from tissue; host or cells: cynomolgus monkey testicular tissue, microsomes
T1 sequence (Q2XVA1 1-508): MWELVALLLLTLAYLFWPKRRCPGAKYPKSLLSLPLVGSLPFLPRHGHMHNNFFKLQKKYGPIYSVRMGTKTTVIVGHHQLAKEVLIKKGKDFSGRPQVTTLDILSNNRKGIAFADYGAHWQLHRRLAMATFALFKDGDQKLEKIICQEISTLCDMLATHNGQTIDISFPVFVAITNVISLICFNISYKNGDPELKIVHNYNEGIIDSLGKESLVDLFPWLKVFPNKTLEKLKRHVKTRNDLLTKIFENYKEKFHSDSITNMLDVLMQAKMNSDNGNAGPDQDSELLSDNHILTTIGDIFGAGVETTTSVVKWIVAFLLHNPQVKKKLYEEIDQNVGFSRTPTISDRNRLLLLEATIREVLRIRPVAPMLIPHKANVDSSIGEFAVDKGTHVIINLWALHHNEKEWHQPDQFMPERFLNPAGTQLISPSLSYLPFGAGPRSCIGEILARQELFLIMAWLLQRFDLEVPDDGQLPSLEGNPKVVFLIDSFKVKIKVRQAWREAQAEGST
Procedure: (§1) The in vitro enzymatic inhibitory activity of the present compounds as inhibitors of steroid C17-20 lyase was established using microsomal preparations of the enzyme from rat or cynomolgus monkey testicular tissue. Microsomes were isolated from cynomolgus monkey or rat testicular tissue. The compound to be tested was dissolved in dimethyl sulfoxide and diluted in 0.05M potassium phosphate buffer, (pH 7.4 for cynomolgus monkey lyase activity and pH 7.2 for rat lyase activity) to give the desired concentrations of test compound. The final assay concentration of DMSO was 0.1% (v/v). Assays contained an NADPH regenerating system comprised of […], 5 mM glucose-6-phosphate, 1 IU/mL glucose-6-phosphate dehydrogenase and microsomal protein in a total volume of 0.2 mL.
For determination of time dependent C17-20 lyase inactivation, the test compound was incubated with 20 to 62 μg/mL microsomal protein, 0.05 M potassium phosphate buffer, pH 7.4, and the NADPH regenerating system described above at 34° C. for 0 to 40 minutes. Aliquots of 180 μL were then removed and assayed for enzyme activity. Each aliquot was added to [7-^3 H]-17α-hydroxypregnenolone (11.2 mCi/mmole; 0.2 μCi per assay) plus unlabeled 17α-hydroxypregnenolone to give a total substrate concentration of 0.3 μM per assay and subsequently incubated for 6 minutes at 34° C. For determination of reversible inhibition by the test compound, the reaction was initiated by the addition of substrate and inhibitor (or DMSO in buffer for controls) simultaneously to the other assay components. The substrate used for cynomolgus monkey lyase was 7-^3 H-17α-hydroxypregnenolone, which yielded a final concentration of 0.3 μM substrate. […] The complete assay was incubated at 34° C. for 6 minutes for both rat and monkey lyase.
Each assay was terminated by addition of 5 mL of chloroform:methanol (2:1). Carrier steroid (2.5 μg each) representing substrates and products and 0.8 mL of distilled, deionized water were then added to each assay. Carrier steroids for the lyase assays were 17α-hydroxy-pregnenolone,dehydroepiandrosterone, and androst-5-ene-3β,17β-diol (cynomolgus monkey lyase assays) or 17α-hydroxyprogesterone, androstenedione, and testosterone (rat lyase assays). Testosterone, dihydrotestosterone, and 3,17-androstanediol were added to the 5α-reductase assays as carrier steroids. Radiolabeled and unlabeled steroid were extracted by the method of Moore and Wilson (Methods in Enzymol., eds. O'Malley, B. W. and Hardlan, J. G. 36, 1975, pp. 466-473). The organic phase containing the steroids was evaporated using nitrogen gas. For lyase assays, the residues dissolved in 18% tetrahydrofuran (v/v) in hexane. For 5α-reductase assays, the dried steroid residues were dissolved in 3% (v/v) isopropanol in hexane. the steroids were then separated by normal phase HPLC on a LiCrosorb® DIOL derivatized silica gel column (10 μm; 4×250 mm) with a 3% to 7.5% isopropanol in hexane gradient, followed by isocratic conditions of […] isopropanol in hexane. Radioactivity in the steroid peaks was measured using a Radiomatic® Model HS or Model A515 Flo-One detector for both lyase and 5α-reductase assays.
The enzyme activity for each assay was calculated from the percent conversion of substrate to products, and the results were expressed as percent inhibition of control. The data from these experiments were fitted into the appropriate two parameter model incorporating six concentrations of inhibitor to determine an IC50 value. […] When the compounds were tested using the above procedures with cynomolgus monkey testicular lyase, the following results were obtained: […]

[2] = molecular target: T2, rat testicular C17-20 lyase (Rattus norvegicus, UniProt P11715); assay: inhibition of rat testicular C17-20 lyase (microsomes)
T2 construct: microsomal preparations of the enzyme from rat or cynomolgus monkey testicular tissue; from tissue; host or cells: rat testicular tissue, microsomes
T2 sequence (P11715 1-507): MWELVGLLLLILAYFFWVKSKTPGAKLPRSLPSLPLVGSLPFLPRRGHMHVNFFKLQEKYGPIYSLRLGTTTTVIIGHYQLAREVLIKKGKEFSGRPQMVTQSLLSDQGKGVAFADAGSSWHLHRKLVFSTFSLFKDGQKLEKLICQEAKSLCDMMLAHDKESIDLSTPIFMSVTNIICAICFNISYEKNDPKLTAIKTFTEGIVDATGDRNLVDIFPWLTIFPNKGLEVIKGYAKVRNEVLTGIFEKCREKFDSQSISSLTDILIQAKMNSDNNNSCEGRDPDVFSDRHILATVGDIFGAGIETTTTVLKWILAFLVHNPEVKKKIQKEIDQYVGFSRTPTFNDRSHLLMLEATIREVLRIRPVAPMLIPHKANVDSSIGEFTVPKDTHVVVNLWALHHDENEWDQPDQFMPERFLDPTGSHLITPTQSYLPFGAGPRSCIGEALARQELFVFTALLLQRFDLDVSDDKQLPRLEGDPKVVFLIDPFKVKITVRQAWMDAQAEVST
Procedure: as §1, with “mL. […]” for “mL.”
(§2) Each assay was terminated by addition of 5 mL of chloroform:methanol (2:1). […] Radioactivity in the steroid peaks was measured using a Radiomatic® Model HS or Model A515 Flo-One detector for both lyase and 5α-reductase assays.
(§3) The enzyme activity for each assay was calculated from the percent conversion of substrate to products, and the results were expressed as percent inhibition of control. […]

[3] = molecular target: T3, prostatic monkey 5α-reductase (Macaca fascicularis, UniProt Q28892); assay: inhibition of cynomolgus monkey prostatic 5α-reductase (microsomes)
T3 construct: microsomes were isolated from cynomolgus monkey prostate tissue; from tissue; host or cells: cynomolgus monkey prostate tissue, microsomes
T3 sequence (Q28892 1-254): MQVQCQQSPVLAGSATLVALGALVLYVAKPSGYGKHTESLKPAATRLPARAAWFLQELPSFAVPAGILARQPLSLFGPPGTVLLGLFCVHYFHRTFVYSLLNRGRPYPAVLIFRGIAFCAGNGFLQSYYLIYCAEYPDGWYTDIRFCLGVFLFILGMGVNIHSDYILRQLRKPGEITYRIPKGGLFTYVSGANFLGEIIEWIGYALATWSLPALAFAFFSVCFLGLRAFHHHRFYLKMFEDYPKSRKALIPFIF
Procedure: The activity of the present compounds as inhibitors of steroid 5α-reductase was determined using microsomal preparations of the 5α-reductase enzyme from laboratory animal prostate tissue. Specifically, microsomes were isolated from cynomolgus monkey prostate tissue. Protein concentration of the microsomal preparations was determined prior to use of the samples. […] Background radioactivity was determined from assays containing all components except enzyme. […]
as §2, §3

[4] = preincubation time 40 (minutes)

SMILES	inhibition at 0.1 µM ([1]; preincubation time 0 (minutes)) [%]	inhibition at 1 µM ([1]; preincubation time 0 (minutes)) [%]	inhibition at 0.1 µM [1, 4] [%]	inhibition at 1 µM [1, 4] [%]	IC50 ([2]; rat testicular microsomes, substrate 0.1 μM 17α-hydroxyprogesterone, pH 7.2, 34° C.) [nM]	IC50 [3] [nM]	IC50 ([1]; cynomolgus monkey testicular microsomes, substrate 0.3 μM 17α-hydroxypregnenolone, 34° C.) [nM]	Km ([2]; substrate Km, rat lyase activity) [µM]
C[C@]12CC[C@H]3[C@@H](CCC4=C([N+](=O)[O-])C(=O)CC[C@@]43C)[C@@H]1CC[C@@H]2OC1CC1 [17β-cyclopropyloxy-4-nitroandrost-4-en-3-one]	36	78	79	95				
C[C@H](CO)[C@H]1CC[C@H]2[C@@H]3CCC4=C([N+](=O)[O-])C(=O)CC[C@]4(C)[C@H]3CC[C@]12C [(20S)-20-Hydroxymethyl-4-nitropregn-4-en-3-one]					86	17	41	
C[C@H](CS)[C@H]1CC[C@H]2[C@@H]3CCC4=C([N+](=O)[O-])C(=O)CC[C@]4(C)[C@H]3CC[C@]12C [(20S)-20-mercaptomethyl-4-nitropregn-4-en-3-one]	0	69	26	93				
CC(=O)[C@@]1(O)CC[C@H]2[C@@H]3CCC4=CC(=O)CC[C@]4(C)[C@H]3CC[C@@]21C [[1,2-^3 H]-17α-hydroxyprogesterone, reference compound]								0.095

Reference: patent publication US5990328A, “Process for the preparation of 4-amino-Δ4-3-ketosteroids via 4-nitro-Δ4-3-ketosteroids” (priority 1999, dated 1999)
